Read-outs that look alike come from different tables or passages of the source.
Experiments:
[1] = test system: Candida albicans ATTC 90028; assay: Antifungal susceptibility testing, Candida albicans; format: cell-based
Experimental: (§1) Using standard susceptibility tests, the compounds of the invention were determined to be active against MRSA, C. neoformans and several other bacteria, fungi and protozoa. More specifically, the antibacterial and antifungal testing was carried out in the following manner. Cryptococcus neoformans ATCC 90113 and MRSA were obtained from the American Type Culture Collection (Manassas. Va.). Several others including Candida albicans ATTC 90028, Aspergillus fumigatus ATCC 90906 and Mycobacterium intracellulare (M. intracellulare) ATCC 23086 were also procured. Susceptibility testing was performed using a modified version of the National Committee for Clinical Laboratory Standards method. M. intracellulare was tested using a modified method of Franzblau, et al., J. Clin. Microbiol., 1998, 36, 362-366. DMSO solutions of samples were serially diluted in saline, and transferred in duplicate to 96 well microplates. Microbial suspensions were diluted in the broth to afford desired colony forming units/mL according to the 0.5 McFarland Standard [C. Albicans: either Saboraud Dextrose broth (SDB) or RPMI 1640, C. neoformans: SDB, A fumigatus: either YM broth (for MICS) or RPMI-1640+5% Alamar Blue.] After adding microbial cultures to the sampled afforded a final volume of 200 μL and final test concentration starting with 20 μg/mL, plates were read prior to and after final incubation using either fluorescence at 544ex/590em (M intracellulare, A. fumigatus) using the Polarstar galaxy reader (Biotek Instruments, Vermont). Growth (saline only), solvent and blank (media only) controls were included on each test plate. Drug controls [Ciprofloxacin (ICN Biomedicals, Ohio) for bacteria and Amphotericin B (ICN Biomedicals, Ohio) for fungi] were included in each assay. Percent growth was calculated and plotted versus test concentration to afford IC50 (sample concentration that affords 50% inhibition or growth of the organism). The minimum inhibitory concentration (MIC) was determined by visually inspecting the plate, and is defined as the lowest test concentration that allows no detectable growth (for Almar Blue assays, no color change from blue to pink).

[2] = test system: MRSA; assay: Antibacterial susceptibility testing, MRSA; format: cell-based, methicillin resistant Staphylococcus aureus; settings: for MRS IC50 / MRS MFC / MRS MIC: Table 1
Experimental: as §1

[3] = test system: Cryptococcus neoformans ATCC 90113; assay: Antifungal susceptibility testing, Cryptococcus neoformans; format: cell-based
Experimental: as §1

[4] = test system: Aspergillus fumigatus ATCC 90906; assay: Antifungal susceptibility testing, Aspergillus fumigatus; format: cell-based
Experimental: as §1

Row | SMILES | Ca IC50 ([1]; Table 1) | Ca MFC ([1]; Table 1) | Ca MIC ([1]; Table 1) | MRS IC50 [2] | MRS MFC [2] | MRS MIC [2] | Cn IC50 ([3]; Table 1) | Cn MFC ([3]; Table 1) | Cn MIC ([3]; Table 1) | A fu IC50 ([4]; Table 1, Aspergillus fumigatus) | A fu MFC ([4]; Table 1, Aspergillus fumigatus) | A fu MIC ([4]; Table 1, Aspergillus fumigatus) | also measured
1 | C[n+]1cc(Sc2ccc(C(F)(F)F)cc2)cc2ccccc21.[I-] [XYZ-III-65] | — ((-) = >20 μg/mL) | — ((-) = >20 μg/mL) | — ((-) = >20 μg/mL) | — ((-) = >20 μg/mL) | — ((-) = >20 μg/mL) | — ((-) = >20 μg/mL) | — ((-) = >20 μg/mL) | — ((-) = >20 μg/mL) | — ((-) = >20 μg/mL) | — ((-) = >20 μg/mL) | — ((-) = >20 μg/mL) | — ((-) = >20 μg/mL) | 
2 | Brc1cccc(Sc2cc3ccccc3[n+](CCCCCc3ccccc3)c2)c1.[I-] [XYZ-III-87] | — ((-) = >20 μg/mL) | — ((-) = >20 μg/mL) | — ((-) = >20 μg/mL) | 2.0 µg/mL | 20 µg/mL | 5.0 µg/mL | 2.0 µg/mL | 20 µg/mL | 5.0 µg/mL | 3.0 µg/mL | — ((-) = >20 μg/mL) | 10 µg/mL | 
3 | [I-].[O-][S+](c1cc2ccccc2[n+](CCCCCc2ccccc2)c1)c1ccccc1Cl (stereo not drawn) [XYZ-V-9] | — ((-) = >20 μg/mL) | — ((-) = >20 μg/mL) | — ((-) = >20 μg/mL) | 0.75 µg/mL | — ((-) = >20 μg/mL) | 2.5 µg/mL | 10 µg/mL | — ((-) = >20 μg/mL) | 20 µg/mL | — ((-) = >20 μg/mL) | — ((-) = >20 μg/mL) | — ((-) = >20 μg/mL) | 
4 | c1ccc(Nc2cc3ccccc3[n+](CCCCCC3CCCCC3)c2)cc1 [JRE-3-19-1] |  |  |  |  |  |  |  |  |  |  |  |  | IC50 ([1]; ATTC90028, Table 2, read-out: Ca IC50): 1 µg/mL; MFC ([1]; ATTC90028, Table 2, read-out: Ca MFC): 13 µg/mL; MIC ([1]; ATTC90028, Table 2, read-out: Ca MIC): 3.1 µg/mL; IC50 ([2]; Staphylococcus aureus, Table 2, read-out: MRSA IC50): 0.85 µg/mL; MFC ([2]; Staphylococcus aureus, Table 2, read-out: MRSA MFC): 6.3 µg/mL; MIC ([2]; Staphylococcus aureus, Table 2, read-out: MRSA MIC): 1.6 µg/mL; IC50 ([3]; ATCC90113, Table 2, read-out: Cn IC50): 0.55 µg/mL; MFC ([3]; ATCC90113, Table 2, read-out: Cn MFC): 6.3 µg/mL; MIC ([3]; ATCC90113, Table 2, read-out: Cn MIC): 0.78 µg/mL; A fu MFC [4]: 25 µg/mL; A fu MIC [4]: 1.6 µg/mL; IC50 ([4]; ATCC90906, Table 2, Aspergillus fumigatus, read-out: A fu IC50): 1 µg/mL
5 | C[n+]1cc(Nc2cccc(Cl)c2)cc2ccccc21.[I-] [JRE-2-81-1] |  |  |  |  |  |  |  |  |  |  |  |  | Ca IC50 ([1]; Table 2): — ((-) = >20 μg/mL); Ca MFC ([1]; Table 2): — ((-) = >20 μg/mL); Ca MIC ([1]; Table 2): — ((-) = >20 μg/mL); MRSA IC50 ([2]; Table 2): — ((-) = >20 μg/mL); MRSA MFC ([2]; Table 2): — ((-) = >20 μg/mL); MRSA MIC ([2]; Table 2): — ((-) = >20 μg/mL); Cn IC50 ([3]; Table 2): — ((-) = >20 μg/mL); Cn MFC ([3]; Table 2): — ((-) = >20 μg/mL); Cn MIC ([3]; Table 2): — ((-) = >20 μg/mL); A fu IC50 ([4]; Table 2, Aspergillus fumigatus): — ((-) = >20 μg/mL)
6 | [I-].[O-][S+](c1ccccc1)c1cc2ccccc2[n+](CCCCCc2ccccc2)c1 (stereo not drawn) [XYZ-IV-79] | — ((-) = >20 μg/mL) | — ((-) = >20 μg/mL) | — ((-) = >20 μg/mL) | 1.5 µg/mL | — ((-) = >20 μg/mL) | 5.0 µg/mL |  | — ((-) = >20 μg/mL) | — ((-) = >20 μg/mL) | — ((-) = >20 μg/mL) | — ((-) = >20 μg/mL) | — ((-) = >20 μg/mL) | 
7 | Fc1ccccc1Sc1cc2ccccc2[n+](CCCCCc2ccccc2)c1.[I-] [XYZ-IV-19] | 2.5 µg/mL | 20 µg/mL | 10 µg/mL | 0.40 µg/mL | 5.0 µg/mL | 0.63 µg/mL | 0.25 µg/mL | 2.5 µg/mL | 0.63 µg/mL | 0.20 µg/mL | — ((-) = >20 μg/mL) | 0.31 µg/mL | 
